Patent US20240390369A1, “METHODS FOR DETERMINING RESPONSIVENESS TO TYK2 INHIBITORS” (Bristol-Myers Squibb Company, priority 2021, published 2024)
Several values for one entry are separate records, joined by “and”; a condition that tells them apart may be missing. Equal entries are not always repeated.

Tested on: patients with psoriatic arthritis
Test: Phase 2 trial in psoriatic arthritis: PASI75 response at week 16
Assay type: in vivo, human
Settings: for Number of subjects: 12 mg QD
Experimental: In a double-blind Phase 2 trial, 203 patients with psoriatic arthritis were randomized into three groups: deucravacitinib 6 mg once daily (N=70), deucravacitinib 12 mg once daily (N=67), or placebo (N=66). All subjects had active psoriatic arthritis according to the Classification Criteria for Psoriatic Arthritis (CASPAR); for active disease, these criteria required ≥3 tender joint count, ≥3 swollen joint count, and a C-reactive protein level above 3 mg/L. Other inclusion criteria included the following: presence of at least one plaque psoriasis lesion, and prior treatment failure with a non-biologic disease modifying anti-rheumatic drug, a non-steroidal anti-inflammatory drug, or a steroid. With respect to treatment history, approximately 70% of subjects had not received prior treatment with a biologic and were biologic naïve, while up to 30% of subjects had failed or had been intolerant to one TNF-inhibitor (TNF=Tumor necrosis factor, also known as TNFα). Randomization was stratified by prior TNF-inhibitor use (experienced/naïve) and body weight (<90 kg and ≥90 kg).
Clinical measures included the Psoriasis […] (PASI) score for skin psoriasis, American College of Rheumatology 20 (ACR20) response, Psoriatic Arthritis Disease Activity Score (PASDAS), Health Assessment Questionnaire-Disability Index (HAQ-DI), and Disease Activity Score 28 CRP (DAS28). To evaluate the predictive value of different protein measurements for the clinical response to deucravacitinib, baseline protein concentrations for responders and non-responders, as defined by ACR20 or PASI75 at week 16, were compared for each arm (placebo, 6 mg deucravacitinib once-daily, and 12 mg deucravacitinib once-daily).
In addition, a logistic regression model was fit, to determine whether baseline disease score (dichotomized by the median baseline score, into baseline score high and baseline score low groups) was associated with response status. The model generated an odds ratio for each dosed arm versus placebo, in baseline score high and baseline score low groups.
Boxplots for baseline protein level by response were generated with a horizontal line indicating the median protein level at baseline. For each treatment arm, a two-sample t-test was performed to test whether mean baseline serum protein level was different in responders versus non-responders. A Wilcoxon rank sum test (Mann-Whitney U test) was also performed to evaluate the difference in median serum protein level between responders and non-responders. Further, barplots of ACR20 and PASI75 response rate at week 16 for each treatment arm were generated for all subjects (protein level high and protein level low subjects, dichotomized according to median baseline level). Line plots of ACR20 and PASI75 response rate over time for each treatment arm were generated for protein level high and protein level low groups. Logistic regression models were also fit to evaluate associations between baseline protein levels and clinical outcome.
For certain analyses described herein, patients were dichotomized by median values (e.g., of the proteins listed above or other measures) into “high” and “low” groups, such that the high group had values above the median and the low group had values less than or equal to the median.
In addition, logistic regression models were fit for response measures ACR20 and PASI75, to generate the odds ratio of each of the deucravacitinib treatment arms versus placebo, in BD2-high and BD2-low groups. The following logistic regression models were used: • For ACR20 response status: ACR20 (Y/N)=treatment arm+BD2 group+treatment arm*BD2 group+TNF-inhibitor use+baseline weight (continuous). • For PASI75 response status: PASI75 (Y/N)=treatment arm+BD2 group+treatment arm*BD2 group+TNF-inhibitor use+baseline weight (continuous). […]

SMILES: [2H]C([2H])([2H])NC(=O)c1nnc(NC(=O)C2CC2)cc1Nc1cccc(-c2ncn(C)n2)c1OC [deucravacitinib, 6-(cyclopropanecarboxamido)-4-((2-methoxy-3-(1-methyl-1H-1,2,4-triazol-3-yl)phenyl)amino)-N-(methyl-d3)pyridazine-3-carboxamide]
- Number of subjects (PASI75 responder at week 16, above median baseline IL-19 level): 20
- Number of subjects (PASI75 responder at week 16, below baseline PASI median 6.6): 11
- Number of subjects (PASI75 responder at week 16, below median baseline BD2 level): 19
- Number of subjects (PASI75 responder at week 16, below median baseline IL-17A level): 12
- Number of subjects (PASI75 responder at week 16, below median baseline IL-19 level): 10
- Number of subjects (PASI75 responder, BD2-high-PASI-high): 13
- Number of subjects (PASI75 responder, BD2-high-PASI-low): 7
- Number of subjects (PASI75 responder, BD2-low-PASI-high): 6
- Number of subjects (PASI75 responder, BD2-low-PASI-low): 4
- Number of subjects (PASI75 responder, IL-17A-high-PASI-high): 10
- Number of subjects (PASI75 responder, IL-17A-high-PASI-low): 8
- Number of subjects (PASI75 responder, IL-17A-low-PASI-high): 9
- Number of subjects (PASI75 responder, IL-17A-low-PASI-low): 3
- Number of subjects (PASI75 responder, IL-19-high-PASI-high): 12
- Number of subjects (PASI75 responder, IL-19-high-PASI-low): 8
- Number of subjects (PASI75 responder, IL-19-low-PASI-high): 7
- Number of subjects (PASI75 responder, IL-19-low-PASI-low): 3
- Odds Ratio, PASI75 response status (All patients, 6 mg QD vs placebo, not adjusted for baseline disease activity): 2.88
- Odds Ratio for PASI75 response (All patients, 6 mg QD vs placebo, week 16): 2.88
- Odds Ratio, PASI75 response status (All patients, 6 mg QD vs placebo, week 16, adjusted for baseline PASI score): 3.052 and 3.05
- Odds Ratio, PASI75 response status (All patients, 12 mg QD vs placebo, not adjusted for baseline disease activity): 5.781 and 5.78
- Odds Ratio for PASI75 response (All patients, 12 mg QD vs placebo, week 16): 5.781
- Odds Ratio, PASI75 response status (All patients, 12 mg QD vs placebo, week 16, adjusted for baseline PASI score): 6.494 and 6.49
- Odds Ratio for PASI75 response (All patients, deucravacitinib treatment arms combined vs placebo, week 16): 3.998
- Odds Ratio, PASI75 response status (All patients, treatment arms combined vs placebo): 3.998
- PASI75 response rate at week 16 (BD2-high group, 6 mg QD and 12 mg QD vs placebo arm (FIG. 7)): higher in both 6 mg QD and 12 mg QD treatment arms compared to the placebo arm
- Odds Ratio for PASI75 response (BD2-high-PASI-high, 6 mg QD vs placebo, week 16): 29.67
- Odds Ratio for PASI75 response (BD2-high-PASI-high, 12 mg QD vs placebo, week 16): 43.084
- Odds Ratio for PASI75 response (BD2-high-PASI-low, 6 mg QD vs placebo, week 16): 2.331
- Odds Ratio for PASI75 response (BD2-high-PASI-low, 12 mg QD vs placebo, week 16): 10.995
- Odds Ratio for PASI75 response (BD2-low-PASI-high, 6 mg QD vs placebo, week 16): 0.825
- Odds Ratio for PASI75 response (BD2-low-PASI-high, 12 mg QD vs placebo, week 16): 7.787
- Odds Ratio for PASI75 response (BD2-low-PASI-low, 6 mg QD vs placebo, week 16): 1.093
- Odds Ratio for PASI75 response (BD2-low-PASI-low, 12 mg QD vs placebo, week 16): 0.967
- Odds Ratio for PASI75 response (BD2 high (baseline above median 9,265 ng/L), 6 mg QD vs placebo, week 16): 10.905
- Odds Ratio for PASI75 response (BD2 high (baseline above median 9,265 ng/L), 12 mg QD vs placebo, week 16): 24.118
- Odds Ratio for PASI75 response (BD2 high, treatment arms combined vs placebo, week 16): 15.415
- Odds Ratio for PASI75 response (BD2 low, 6 mg QD vs placebo, week 16): 0.938
- Odds Ratio for PASI75 response (BD2 low, 12 mg QD vs placebo, week 16): 1.695
- Odds Ratio for PASI75 response (BD2 low, treatment arms combined vs placebo, week 16): 1.274
- Odds Ratio for PASI75 response (Baseline PASI high (above median 6.6), 6 mg QD vs placebo, week 16): 6.94 and 6.937
- Odds Ratio for PASI75 response (Baseline PASI high (above median 6.6), 12 mg QD vs placebo, week 16): 15.75
- Odds Ratio for PASI75 response (Baseline PASI low (at or below median 6.6), 6 mg QD vs placebo, week 16): 1.26 and 1.258
- Odds Ratio for PASI75 response (Baseline PASI low (at or below median 6.6), 12 mg QD vs placebo, week 16): 2.454
- Odds Ratio, PASI75 response status (CRP high, 6 mg QD vs placebo): 3.54
- Odds Ratio, PASI75 response status (CRP high, 12 mg QD vs placebo): 9.78
- Odds Ratio, PASI75 response status (CRP high, treatment arms combined vs placebo): 5.405
- Odds Ratio for PASI75 response (CRP level above median and baseline PASI score above median, 6 mg QD vs placebo, week 16): 18.381
- Odds Ratio, PASI75 response status (CRP low, 6 mg QD vs placebo): 2.12
- Odds Ratio, PASI75 response status (CRP low, 12 mg QD vs placebo): 3.72
- Odds Ratio, PASI75 response status (CRP low, treatment arms combined vs placebo): 2.840
- Odds Ratio, PASI75 response status (CRP-high-PASI-high, 6 mg QD vs placebo): 18.381
